Experimental data as given in patent US11680056B2, “MK2 inhibitors and uses thereof” (Xinthera, Inc., priority 2021, dated 2023).
Where two headings read alike, the source gives them in different places.

Key:
p38a/MK2 = p38a/MK2 (Homo sapiens (Human), UniProt P49137+Q16539); test: p38a/MK2 biochemical assay: activation of MK2 by p38, FITC-HSP27 peptide phosphorylation (IMAP FP); conditions: 10-point 1:3 dilution, 60 pM active p38a, 1 nM inactive MK2, 10 μM ATP, 2 h incubation
Description: (§1) Expression vectors of the recombinant MK2 and PRAK kinases were constructed by cloning of the codon optimized gene sequences of MK2 (Uniprot ID P49137, amino acid fragment F46-H400), or PRAK (Uniprot ID Q81W41, amino acid fragment M1-Q471) into pGEX-4T1 (GE) for over expression of these kinases with N-terminal GST-tag. Protein expression was carried out in E. coli BL21 by growing the hosts in TB medium, induction of protein expression with 0.5 mM IPTG at approximate 0.8 OD600, and incubation of the cultures at 18° C. for 14-20 hours afterwards. The harvested cells were resuspended in […] of Lysis buffer (50 mM Tris-HCl, pH 8.0, 500 mM NaCl, 1 mM DTT, 5% glycerol, and 1 mM PMSF) per gram of wet cell mass and homogenized at 4° C. in a microfluidizer (ATS, Suzhou, China) at 14,000 psi pressure, 3 passes. The cell lysates were clarified by centrifugation and the supernatants containing the GST-fusion proteins were purified by affinity chromatography using GSH-Sepharose (GE) gravity flow columns pre-equilibrated in Buffer A (50 mM Tris-HCl, pH 8.0, 500 mM NaCl, 1 mM DTT, and 5% glycerol). After thorough washing of the columns with Buffer A, the bound GST-proteins were eluted by Buffer B (50 mM Tris, pH 8.0, 500 mM NaCl, 1 mM DTT, 5% glycerol, 10 mM glutathione), followed by size-exclusion purification on Superdex 200 column equilibrated in Buffer A. The purified proteins were concentrated to approximately 1 mg/ml and stored at −80° C.
This study evaluates the inhibitory potency of invention compound on p38/MK2 pathway vs p38/PRAK pathway. More specially the compound concentration (IC50) was determined that inhibited half of the maximal activation of MK2 or PRAK by p38. MK2 activation study was set up without or with a serial of 10-point 1:[…], and PRAK activation study was set up without or with a serial of 10-point 1:3 dilution of invention compound at top dose of 300 μM. The MK2 and PRAK activity were determined by the phosphorylation level of HSP27 peptide conjugated with FITC.
(§2) After 2 h incubation of the reaction mixture with various concentration of invention compound (200 nL), 60 μL 1×IMAP solution Mixture (Molecular Devices, Cat R8127) was added to the reaction mixture and incubated for another half hour. The signal was then read by Synergy™ Neo2 Multi-Mode Microplate Reader with filter setting (Ex/Em=485 nm/FITC FP-P pol 528 nm & FITC FP-S pol 528 nm)
(§3) The signal was then normalized to vehicle control and fitted in Xfit to generate IC50. The selectivity of MK2 over PRAK was calculated by the formular Selectivity=IC50 of PRAK/IC50 of MK2.

p38a/PRAK = p38a/PRAK (Homo sapiens (Human), UniProt Q16539); test: p38a/PRAK biochemical assay: activation of PRAK by p38, FITC-HSP27 peptide phosphorylation (IMAP FP); conditions: 10-point 1:3 dilution, top dose 300 μM; 60 pM active p38a, 1 nM inactive PRAK, 10 μM ATP, 2 h incubation; read-out: p38a/PRAK Enzyme pIC50 (converted)
Description: as §1
This study evaluates the inhibitory potency of invention compound on p38/MK2 pathway vs p38/PRAK pathway. More specially the compound concentration (IC50) was determined that inhibited half of the maximal activation of MK2 or PRAK by p38. MK2 activation study was set up without or with a serial of 10-point 1:3 dilution of invention compound at top dose of […], and PRAK activation study was set up without or with a serial of 10-point 1:3 dilution of invention compound at top dose of 300 μM. The MK2 and PRAK activity were determined by the phosphorylation level of HSP27 peptide conjugated with FITC.
as §2, §3

[1] = top dose 1 μM, read-out: p38a/MK2 (1 μM) Enzyme pIC50 (converted)
[2] = top dose 10 μM, read-out: p38a/MK2 (10 μM) Enzyme pIC50 (converted)

p38a/PRAK, sequence (Q16539 whole entry): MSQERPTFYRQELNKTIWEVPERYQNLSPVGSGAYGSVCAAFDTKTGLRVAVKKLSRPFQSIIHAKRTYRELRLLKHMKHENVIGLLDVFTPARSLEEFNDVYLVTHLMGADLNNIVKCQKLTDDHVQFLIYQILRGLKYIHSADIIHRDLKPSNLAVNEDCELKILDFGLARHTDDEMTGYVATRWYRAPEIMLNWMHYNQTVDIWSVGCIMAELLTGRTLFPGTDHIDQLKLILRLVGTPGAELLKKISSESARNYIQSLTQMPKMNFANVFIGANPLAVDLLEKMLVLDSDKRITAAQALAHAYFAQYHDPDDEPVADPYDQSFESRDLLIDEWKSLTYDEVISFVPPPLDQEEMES
p38a/MK2, sequence (P49137 46-400): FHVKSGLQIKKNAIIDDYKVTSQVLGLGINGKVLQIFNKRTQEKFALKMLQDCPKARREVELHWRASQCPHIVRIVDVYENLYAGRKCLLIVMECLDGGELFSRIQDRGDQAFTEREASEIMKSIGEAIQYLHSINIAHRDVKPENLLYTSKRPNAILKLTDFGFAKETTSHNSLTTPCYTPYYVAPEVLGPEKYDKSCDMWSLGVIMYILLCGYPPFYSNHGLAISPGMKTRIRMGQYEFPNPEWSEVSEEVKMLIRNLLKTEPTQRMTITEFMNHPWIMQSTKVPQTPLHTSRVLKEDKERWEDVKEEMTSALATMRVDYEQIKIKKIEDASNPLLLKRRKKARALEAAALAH
p38a/MK2, sequence (Q16539 whole entry, the tested form may be a part): as the sequence (Q16539 whole entry) above

An IC50 (p38a/MK2; [1]) of 0.00316 µM and an IC50 (p38a/PRAK) of 2 µM were found for `Cc1cnc(-c2ccnc(C3(CO)CC3)n2)cc1-n1c(C)cc(OCc2ncc(F)cc2F)c(Cl)c1=O` (single isomer, unassigned) [Example 21B, rel-3-chloro-4-((3,5-difluoropyridin-2-yl)methoxy)-2′-(2-(1-(hydroxymethyl)cyclopropyl)pyrimidin-4-yl)-5′,6-dimethyl-2H-[1,4′-bipyridin]-2-one] in this work.
An IC50 (p38a/MK2; [2]) of 0.0316 µM and an IC50 (p38a/PRAK) of 15.8 µM were found for `Cc1cc(COc2cc(C)n(-c3cc(-c4ccnc(C(C)(C)O)n4)ncc3C)c(=O)c2Cl)ncc1F` (single isomer, unassigned) [Example 22A, rel-3-chloro-4-[(5-fluoro-4-methylpyridin-2-yl)methoxy]-2′-[2-(2-hydroxypropan-2-yl)pyrimidin-4-yl]-5′,6-dimethyl-[1,4′-bipyridin]-2-one] in this work.
An IC50 (p38a/MK2; [2]) of over 10 µM and an IC50 (p38a/PRAK) of over 316 µM were found for `Cc1cc(COc2cc(C)n(-c3cc(-c4ccnc(C(C)(C)O)n4)ncc3C)c(=O)c2Cl)ncc1F` (single isomer, unassigned) [Example 22B, rel-3-chloro-4-[(5-fluoro-4-methylpyridin-2-yl)methoxy]-2′-[2-(2-hydroxypropan-2-yl)pyrimidin-4-yl]-5′,6-dimethyl-[1,4′-bipyridin]-2-one] in this work.
An IC50 (p38a/MK2; [1]) of 0.00316 µM and an IC50 (p38a/PRAK) of 12.6 µM were found for `Cc1cnc(COc2cc(C)n(-c3cc(-c4ccnc(C(C)(C)O)n4)ncc3C)c(=O)c2Cl)c(F)c1` (single isomer, unassigned) [Example 23A, rel-3-chloro-4-[(3-fluoro-5-methylpyridin-2-yl)methoxy]-2′-[2-(2-hydroxypropan-2-yl)pyrimidin-4-yl]-5′,6-dimethyl-[1,4′-bipyridin]-2-one] in this work.
An IC50 (p38a/MK2; [2]) of over 10 µM and an IC50 (p38a/PRAK) of over 316 µM were found for `Cc1cnc(COc2cc(C)n(-c3cc(-c4ccnc(C(C)(C)O)n4)ncc3C)c(=O)c2Cl)c(F)c1` (single isomer, unassigned) [Example 23B, rel-3-chloro-4-[(3-fluoro-5-methylpyridin-2-yl)methoxy]-2′-[2-(2-hydroxypropan-2-yl)pyrimidin-4-yl]-5′,6-dimethyl-[1,4′-bipyridin]-2-one] in this work.
An IC50 (p38a/MK2; [1]) of 0.00158 µM and an IC50 (p38a/PRAK) of 6.31 µM were found for `Cc1cnc(-c2ccc(F)c(C(C)(C)O)n2)cc1-n1c(C)cc(OCc2ncc(F)cc2F)c(Cl)c1=O` (single isomer, unassigned) [Example 24A, rel-3-chloro-4-[(3,5-difluoropyridin-2-yl)methoxy]-1-[5′-fluoro-6′-(2-hydroxypropan-2-yl)-5-methyl-[2,2′-bipyridin]-4-yl]-6-methylpyridin-2-one] in this work.
An IC50 (p38a/MK2; [2]) of 1.58 µM and an IC50 (p38a/PRAK) of over 316 µM were found for `Cc1cnc(-c2ccc(F)c(C(C)(C)O)n2)cc1-n1c(C)cc(OCc2ncc(F)cc2F)c(Cl)c1=O` (single isomer, unassigned) [Example 24B, rel-3-chloro-4-[(3,5-difluoropyridin-2-yl)methoxy]-1-[5′-fluoro-6′-(2-hydroxypropan-2-yl)-5-methyl-[2,2′-bipyridin]-4-yl]-6-methylpyridin-2-one] in this work.
An IC50 (p38a/MK2; [2]) of 0.0316 µM and an IC50 (p38a/PRAK) of 3.16 µM were found for `Cc1cnc(-c2ccn(C(C)(C)CO)n2)cc1-n1c(C)cc(OCc2ncc(F)cc2F)c(Cl)c1=O` (single isomer, unassigned) [Example 25A, rel-3-chloro-4-[(3,5-difluoropyridin-2-yl)methoxy]-2′-[1-(1-hydroxy-2-methylpropan-2-yl)pyrazol-3-yl]-5′,6-dimethyl-[1,4′-bipyridin]-2-one] in this work.
An IC50 (p38a/MK2; [2]) of 3.16 µM and an IC50 (p38a/PRAK) of over 316 µM were found for `Cc1cnc(-c2ccn(C(C)(C)CO)n2)cc1-n1c(C)cc(OCc2ncc(F)cc2F)c(Cl)c1=O` (single isomer, unassigned) [Example 25B, rel-3-chloro-4-[(3,5-difluoropyridin-2-yl)methoxy]-2′-[1-(1-hydroxy-2-methylpropan-2-yl)pyrazol-3-yl]-5′,6-dimethyl-[1,4′-bipyridin]-2-one] in this work.
An IC50 (p38a/MK2; [1]) of 0.0126 µM and an IC50 (p38a/PRAK) of 2 µM were found for `Cc1cnc(-c2ccnc(C3CC(O)C3)n2)cc1-n1c(C)cc(OCc2ncc(F)cc2F)c(Cl)c1=O` (single isomer, unassigned) [Example 26A, rel-3-chloro-4-((3,5-difluoropyridin-2-yl)methoxy)-2′-(2-(3-hydroxycyclobutyl)pyrimidin-4-yl)-5′,6-dimethyl-2H-[1,4′-bipyridin]-2-one] in this work.
An IC50 (p38a/MK2; [2]) of 1.58 µM and an IC50 (p38a/PRAK) of over 316 µM were found for `Cc1cnc(-c2ccnc(C3CC(O)C3)n2)cc1-n1c(C)cc(OCc2ncc(F)cc2F)c(Cl)c1=O` (single isomer, unassigned) [Example 26B, rel-3-chloro-4-((3,5-difluoropyridin-2-yl)methoxy)-2′-(2-(3-hydroxycyclobutyl)pyrimidin-4-yl)-5′,6-dimethyl-2H-[1,4′-bipyridin]-2-one] in this work.
An IC50 (p38a/MK2; [2]) of 0.0631 µM and an IC50 (p38a/PRAK) of 126 µM were found for `Cc1cnc(-c2ccnc(C(C)(C)O)n2)cc1-n1c(C)cc(OCc2cc(C(F)F)ccn2)c(Cl)c1=O` (single isomer, unassigned) [Example 27A, rel-3-chloro-4-{[4-(difluoromethyl)pyridin-2-yl]methoxy}-2′-[2-(2-hydroxypropan-2-yl)pyrimidin-4-yl]-5′,6-dimethyl-[1,4′-bipyridin]-2-one] in this work.
An IC50 (p38a/MK2; [2]) of 5.01 µM and an IC50 (p38a/PRAK) of over 316 µM were found for `Cc1cnc(-c2ccnc(C(C)(C)O)n2)cc1-n1c(C)cc(OCc2cc(C(F)F)ccn2)c(Cl)c1=O` (single isomer, unassigned) [Example 27B, rel-3-chloro-4-{[4-(difluoromethyl)pyridin-2-yl]methoxy}-2′-[2-(2-hydroxypropan-2-yl)pyrimidin-4-yl]-5′,6-dimethyl-[1,4′-bipyridin]-2-one] in this work.
An IC50 (p38a/MK2; [1]) of 0.00794 µM and an IC50 (p38a/PRAK) of 12.6 µM were found for `CCc1cnc(-c2ccnc(C(C)(C)O)n2)cc1-n1c(C)cc(OCc2ncc(F)cc2F)c(Cl)c1=O` (single isomer, unassigned) [Example 29A, rel-3-chloro-4-((3,5-difluoropyridin-2-yl)methoxy)-5′-ethyl-2′-(2-(2-hydroxypropan-2-yl)pyrimidin-4-yl)-6-methyl-2H-[1,4′-bipyridin]-2-one] in this work.
An IC50 (p38a/MK2; [2]) of over 10 µM and an IC50 (p38a/PRAK) of over 316 µM were found for `CCc1cnc(-c2ccnc(C(C)(C)O)n2)cc1-n1c(C)cc(OCc2ncc(F)cc2F)c(Cl)c1=O` (single isomer, unassigned) [Example 29B, rel-3-chloro-4-((3,5-difluoropyridin-2-yl)methoxy)-5′-ethyl-2′-(2-(2-hydroxypropan-2-yl)pyrimidin-4-yl)-6-methyl-2H-[1,4′-bipyridin]-2-one] in this work.
An IC50 (p38a/MK2; [2]) of 2 µM and an IC50 (p38a/PRAK) of 3.16 µM were found for `Cc1cnc(-c2nc(C(C)(C)O)ncc2C2CC2)cc1-n1c(C)cc(OCc2ncc(F)cc2F)c(Cl)c1=O` (single isomer, unassigned) [Example 31A, rel-3-chloro-2′-(5-cyclopropyl-2-(2-hydroxypropan-2-yl)pyrimidin-4-yl)-4-((3,5-difluoropyridin-2-yl)methoxy)-5′,6-dimethyl-2H-[1,4′-bipyridin]-2-one] in this work.
An IC50 (p38a/MK2; [2]) of over 10 µM and an IC50 (p38a/PRAK) of over 316 µM were found for `Cc1cnc(-c2nc(C(C)(C)O)ncc2C2CC2)cc1-n1c(C)cc(OCc2ncc(F)cc2F)c(Cl)c1=O` (single isomer, unassigned) [Example 31B, rel-3-chloro-2′-(5-cyclopropyl-2-(2-hydroxypropan-2-yl)pyrimidin-4-yl)-4-((3,5-difluoropyridin-2-yl)methoxy)-5′,6-dimethyl-2H-[1,4′-bipyridin]-2-one] in this work.
An IC50 (p38a/MK2; [1]) of 0.02 µM and an IC50 (p38a/PRAK) of 6.31 µM were found for `Cc1cnc(-c2ccc3c(n2)C(C)(O)CC3)cc1-n1c(C)cc(OCc2ncc(F)cc2F)c(Cl)c1=O` (single isomer, unassigned) [Example 32A] in this work.
